Assay results published in PubChem BioAssay (NCI).
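48-hour exposure; five concentrations; linearly interpolated endpoints. GI50: concentration for 50% inhibition of growth. TGI: total growth inhibition.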

Tests used:
Experiment in all cases: NCI anticancer screen, dose series, 48 h
K-562 leukemia = system: K-562 leukemia
LOX IMVI melanoma = system: LOX IMVI melanoma
PC-3 prostate = system: PC-3 prostate
SF-539 CNS = system: SF-539 CNS
M14 melanoma = system: M14 melanoma
MDA-MB-435 = system: MDA-MB-435
SNB-75 CNS = system: SNB-75 CNS
HCT-15 colon = system: HCT-15 colon
HCC-2998 colon = system: HCC-2998 colon
SK-OV-3 ovarian = system: SK-OV-3 ovarian

## O=C(CCCCCCNC(=O)c1cnc(N(c2ccccc2)c2ccccc2)nc1)NO
K-562 leukemia
  GI50: 2.47 µM
  TGI: > 100 µM
LOX IMVI melanoma
  GI50: 2.15 µM
  TGI: 11.4 µM
PC-3 prostate
  GI50: 4.87 µM
  TGI: > 100 µM
SF-539 CNS
  GI50: 2.92 µM
  TGI: 52.3 µM
M14 melanoma
  GI50: 3.57 µM
  TGI: > 100 µM
MDA-MB-435
  GI50: 2.04 µM
  TGI: > 36.8 µM
SNB-75 CNS
  GI50: 1.5 µM
  TGI: > 51.9 µM
HCT-15 colon
  GI50: 18.4 µM
  TGI: > 100 µM
HCC-2998 colon
  GI50: 3.38 µM
  TGI: 12.5 µM
SK-OV-3 ovarian
  GI50: 3.25 µM
  TGI: 23.8 µM

## C=C(CN1C(=O)CN(C)C1=O)c1ccc(C(=O)Nc2ccccc2N)cc1
K-562 leukemia
  GI50: 5.9 µM
  TGI: 74.5 µM
LOX IMVI melanoma
  GI50: 18.2 µM
  TGI: 69.9 µM
PC-3 prostate
  GI50: 12 µM
  TGI: > 100 µM
SF-539 CNS
  GI50: 36.2 µM
  TGI: > 100 µM
M14 melanoma
  GI50: 29.8 µM
  TGI: > 100 µM
MDA-MB-435
  GI50: 11.3 µM
  TGI: 54.1 µM
SNB-75 CNS
  GI50: 5.87 µM
  TGI: 57.6 µM
HCT-15 colon
  GI50: 40.9 µM
  TGI: > 100 µM
HCC-2998 colon
  GI50: 22 µM
  TGI: 54.3 µM
SK-OV-3 ovarian
  GI50: 1.64 µM
  TGI: 9.96 µM

## CC(=O)NC1C(OC[C@@H](CC(=O)N[C@@H](CC(=O)O)CC(=O)N[C@H](CC(=O)N[C@@H](CCCN)CC(=O)N[C@@H](CCCN)CC(=O)N[C@H](CC(N)=O)C(C)C)C(C)C)NC(=O)C[C@@H](N)C(C)C)OC(CO)C(O)C1O (some centres not stated)
K-562 leukemia
  GI50: > 100 µM
  TGI: > 100 µM
LOX IMVI melanoma
  GI50: > 100 µM
  TGI: > 100 µM
PC-3 prostate
  GI50: > 100 µM
  TGI: > 100 µM
SF-539 CNS
  GI50: > 100 µM
  TGI: > 100 µM
M14 melanoma
  GI50: > 100 µM
  TGI: > 100 µM
MDA-MB-435
  GI50: > 100 µM
  TGI: > 100 µM
SNB-75 CNS
  GI50: > 100 µM
  TGI: > 100 µM
HCT-15 colon
  GI50: > 100 µM
  TGI: > 100 µM
HCC-2998 colon
  GI50: > 100 µM
  TGI: > 100 µM
SK-OV-3 ovarian
  GI50: > 100 µM
  TGI: > 100 µM

## CCCCON(OC(=O)c1ccc2ccccc2c1)C(=O)c1ccccc1
K-562 leukemia
  GI50: 41.7 µM
  TGI: > 100 µM
LOX IMVI melanoma
  GI50: 25.3 µM
  TGI: 72 µM
PC-3 prostate
  GI50: > 100 µM
  TGI: > 100 µM
SF-539 CNS
  GI50: > 100 µM
  TGI: > 100 µM
M14 melanoma
  GI50: > 100 µM
  TGI: > 100 µM
MDA-MB-435
  GI50: > 100 µM
  TGI: > 100 µM
SNB-75 CNS
  GI50: 86.2 µM
  TGI: > 100 µM
HCT-15 colon
  GI50: > 100 µM
  TGI: > 100 µM
HCC-2998 colon
  GI50: > 100 µM
  TGI: > 100 µM
SK-OV-3 ovarian
  GI50: > 100 µM
  TGI: > 100 µM

## O=c1[nH]nnc2c1ncn2C1OC(CO)C(O)C1O (configuration not stated)
K-562 leukemia
  GI50: 2.26 µM
  TGI: > 100 µM
LOX IMVI melanoma
  GI50: 2.23 µM
  TGI: > 100 µM
PC-3 prostate
  GI50: 2.93 µM
  TGI: > 100 µM
SF-539 CNS
  GI50: 14.5 µM
  TGI: > 100 µM
M14 melanoma
  GI50: 3.57 µM
  TGI: > 100 µM
MDA-MB-435
  GI50: 14.2 µM
  TGI: > 100 µM
SNB-75 CNS
  GI50: 0.99 µM
  TGI: > 100 µM
HCT-15 colon
  GI50: 8.04 µM
  TGI: > 100 µM
HCC-2998 colon
  GI50: 4.12 µM
  TGI: > 100 µM
SK-OV-3 ovarian
  GI50: 0.881 µM
  TGI: > 100 µM

## O.O.[NH-]C1(C(=O)O)CCCC1.[NH-]C1(C(=O)O)CCCC1.[Ni+2]
K-562 leukemia
  TGI: > 100 µM
LOX IMVI melanoma
  TGI: > 100 µM
PC-3 prostate
  GI50: > 100 µM
  TGI: > 100 µM
SF-539 CNS
  TGI: > 100 µM
M14 melanoma
  GI50: 96.7 µM
  TGI: > 100 µM
MDA-MB-435
  GI50: > 100 µM
  TGI: > 100 µM
SNB-75 CNS
  TGI: > 100 µM
HCT-15 colon
  TGI: > 100 µM
SK-OV-3 ovarian
  TGI: > 100 µM

## CN(/N=C/c1cccc2cccnc12)c1ccc([N+](=O)[O-])cc1[N+](=O)[O-]
K-562 leukemia
  TGI: > 100 µM
LOX IMVI melanoma
  TGI: > 100 µM
PC-3 prostate
  TGI: > 100 µM
SF-539 CNS
  TGI: 32.1 µM
M14 melanoma
  TGI: > 94.4 µM
MDA-MB-435
  TGI: > 100 µM
SNB-75 CNS
  TGI: 25.8 µM
HCT-15 colon
  TGI: > 100 µM
HCC-2998 colon
  TGI: > 100 µM
SK-OV-3 ovarian
  TGI: 52.8 µM

## CCOC(=O)Nc1ccc2c(c1)/C(=N\NC(N)=S)c1ccccc1-2
K-562 leukemia
  GI50: 3.94 µM
  TGI: > 44.8 µM
LOX IMVI melanoma
  GI50: 3.52 µM
  TGI: 20.2 µM
PC-3 prostate
  GI50: 4.44 µM
  TGI: 24.8 µM
SF-539 CNS
  GI50: 3.75 µM
  TGI: 17.3 µM
M14 melanoma
  GI50: 4.69 µM
  TGI: 23.1 µM
MDA-MB-435
  GI50: 3.58 µM
  TGI: 18.3 µM
SNB-75 CNS
  GI50: 4.19 µM
  TGI: 18.2 µM
HCT-15 colon
  GI50: 3.25 µM
  TGI: 18.4 µM
HCC-2998 colon
  GI50: 4.77 µM
  TGI: 22.5 µM
SK-OV-3 ovarian
  GI50: 11.7 µM
  TGI: 44.8 µM

## COc1cccc(N2CCN(CC(=O)N3CCN(c4nnc(-c5ccc(Cl)cc5)c(-c5ccc(Cl)cc5)n4)CC3)CC2)c1
K-562 leukemia
  GI50: 9.89 µM
  TGI: > 100 µM
LOX IMVI melanoma
  GI50: 21.3 µM
  TGI: > 100 µM
PC-3 prostate
  GI50: 16.6 µM
  TGI: > 100 µM
SF-539 CNS
  GI50: 11.5 µM
  TGI: 90.7 µM
M14 melanoma
  GI50: 30.2 µM
  TGI: > 100 µM
MDA-MB-435
  GI50: 9.26 µM
  TGI: > 100 µM
SNB-75 CNS
  GI50: 19 µM
  TGI: 52.9 µM
HCT-15 colon
  GI50: 8.35 µM
  TGI: > 100 µM
HCC-2998 colon
  GI50: > 100 µM
  TGI: > 100 µM
SK-OV-3 ovarian
  GI50: 22 µM
  TGI: 77.6 µM

## C=CCOc1cc(NC(=S)c2ccoc2C)ccc1OC
K-562 leukemia
  TGI: > 100 µM
LOX IMVI melanoma
  TGI: > 100 µM
PC-3 prostate
  TGI: > 100 µM
SF-539 CNS
  TGI: > 100 µM
M14 melanoma
  TGI: > 100 µM
MDA-MB-435
  TGI: > 100 µM
SNB-75 CNS
  TGI: > 100 µM
HCT-15 colon
  TGI: > 100 µM
HCC-2998 colon
  TGI: > 100 µM
SK-OV-3 ovarian
  TGI: > 100 µM

## N=C1C(c2nc3ccccc3s2)=C(O)CN1c1ccc(F)c(Cl)c1
K-562 leukemia
  GI50: 31.1 µM
  TGI: > 100 µM
LOX IMVI melanoma
  GI50: 20.3 µM
  TGI: > 100 µM
PC-3 prostate
  GI50: 4.04 µM
  TGI: 30.8 µM
SF-539 CNS
  GI50: 8.36 µM
  TGI: 30.9 µM
M14 melanoma
  GI50: > 100 µM
  TGI: > 100 µM
MDA-MB-435
  GI50: 61.9 µM
  TGI: > 100 µM
SNB-75 CNS
  GI50: 13 µM
  TGI: 51.4 µM
HCT-15 colon
  GI50: 0.999 µM
  TGI: > 100 µM
HCC-2998 colon
  GI50: 61.7 µM
  TGI: > 100 µM
SK-OV-3 ovarian
  GI50: 25.3 µM
  TGI: > 100 µM

## COc1ccc(-c2nn(-c3cccc(Cl)c3)cc2-c2cc(-c3cccs3)[nH]c(=S)n2)cc1
K-562 leukemia
  GI50: 2.91 µM
  TGI: > 100 µM
LOX IMVI melanoma
  GI50: 3.56 µM
  TGI: 13.8 µM
PC-3 prostate
  GI50: 3.09 µM
  TGI: > 100 µM
SF-539 CNS
  GI50: 4.7 µM
  TGI: 19.7 µM
M14 melanoma
  GI50: 2.81 µM
  TGI: 14 µM
MDA-MB-435
  GI50: 3.13 µM
  TGI: 19 µM
SNB-75 CNS
  GI50: 3.49 µM
  TGI: 25.6 µM
HCT-15 colon
  GI50: 3.69 µM
  TGI: > 100 µM
HCC-2998 colon
  GI50: 4.03 µM
  TGI: 16.4 µM
SK-OV-3 ovarian
  GI50: 5.91 µM
  TGI: 36.8 µM

## O=c1[nH]c(=O)c2cn[nH]c2[nH]1
K-562 leukemia
  GI50: > 100 µM
  TGI: > 100 µM
LOX IMVI melanoma
  GI50: > 100 µM
  TGI: > 100 µM
PC-3 prostate
  GI50: > 100 µM
  TGI: > 100 µM
SF-539 CNS
  GI50: > 100 µM
  TGI: > 100 µM
M14 melanoma
  GI50: > 100 µM
  TGI: > 100 µM
MDA-MB-435
  GI50: > 100 µM
  TGI: > 100 µM
SNB-75 CNS
  GI50: > 100 µM
  TGI: > 100 µM
HCT-15 colon
  GI50: > 100 µM
  TGI: > 100 µM
HCC-2998 colon
  GI50: > 100 µM
  TGI: > 100 µM
SK-OV-3 ovarian
  GI50: > 100 µM
  TGI: > 100 µM
